In one series the test system is MDA-MB-231. Briefly: Cytotoxicity against human MDA-MB-231 cells assessed as cell growth inhibition incubated for 48 hrs by SRB method. Format: functional, cell-based. The note with it: MDA-MB-231, 48 h. (In general: In SRB staining, fixed cells bind dye roughly in proportion to their protein.)
The test system of another series is PC-3. Briefly: Cytotoxicity against human PC-3 cells assessed as cell growth inhibition incubated for 48 hrs by SRB method. Format: functional, cell-based. The note with it: PC-3, 48 h.
The test system of a further series is ACHN. Briefly: Cytotoxicity against human ACHN cells assessed as cell growth inhibition incubated for 48 hrs by SRB method. The series is classed as functional, cell-based.
The next series has as its system HCT-15. Briefly: Cytotoxicity against human HCT-15 cells assessed as cell growth inhibition incubated for 48 hrs by SRB method. Format: functional, cell-based. Particulars: HCT-15, 48 h.
The next series deals with NUGC-3. Briefly: Cytotoxicity against human NUGC-3 cells assessed as cell growth inhibition incubated for 48 hrs by SRB method. Format: functional, cell-based. The note with it: NUGC-3, 48 h.
In series [1] the test system is BV-2. Briefly: Anti-neuroinflammatory activity in mouse BV-2 cells assessed as inhibition of LPS-induced NO production pretreated for 1 hr followed by LPS addition measured after 24 hrs by Griess reagent based assay. The series is classed as functional, cell-based. (In general: The Griess reaction detects nitrite, a stable product of nitric oxide.)
In the next series the test system is NCI-H23. Briefly: Cytotoxicity against human NCI-H23 cells assessed as cell growth inhibition incubated for 48 hrs by SRB method. Format: functional, cell-based. Particulars: NCI-H23, 48 h.
The subject of series [2] is BV-2. Briefly: Cytotoxicity against LPS induced mouse BV-2 cells assessed as reduction in cell viability at >1 uM pretreated for 1 hr followed by LPS addition measured after 24 hrs by MTT assay. The series is classed as toxicity, cell-based. The note with it: bv-2, 25 h. On the technique in general: Tetrazolium assays rely on reduction of a dye to a coloured formazan, in cell work by metabolically active cells.

Structures can show the parent of a compound that is named as a salt.

What is called IC50 is the concentration at which inhibition is half-maximal. `C[C@@H](O)c1cccc2nc3c(C(=O)O)cccc3nc12`: the IC50 in the series with MDA-MB-231 is greater than 10 µM; with PC-3, greater than 10 µM; with ACHN it was greater than 10 µM; in the series on HCT-15 it was greater than 10 µM; in the series on NUGC-3, greater than 10 µM; in the series with BV-2 [1], 16 µM. Besides, the IC50 in the series on NCI-H23 is greater than 10 µM.
`C[C@H](c1cc([C@@H](C)O)c2nc3cccc(C(=O)O)c3nc2c1)c1cccc2nc3c(C(=O)O)cccc3nc12`: the IC50 in the series on MDA-MB-231, with PC-3, with ACHN, in the series with HCT-15, in the series with NUGC-3 and in the series on NCI-H23 was greater than 10 µM each time.
As to `CC(=O)c1cccc2nc3c(C(=O)O)ccc([C@H](C)c4cccc5nc6c(C(=O)O)cccc6nc45)c3nc12`, the concentration for half-maximal inhibition (IC50) in the series with MDA-MB-231 was greater than 10 µM; in the series on PC-3, greater than 10 µM; with ACHN, greater than 10 µM; in the series on HCT-15, greater than 10 µM; with NUGC-3, greater than 10 µM; in the series on BV-2 [1], 35 µM. Further, the IC50 with NCI-H23 is greater than 10 µM.
Regarding `COc1cccc2c1C(=O)c1c(O)c3c(c(O)c1C2=O)C[C@@](O)(C(=O)CO)C[C@@H]3O[C@H]1C[C@H](N)[C@H](O)[C@H](C)O1` [DOXORUBICIN HYDROCHLORIDE], the 50% inhibitory concentration (IC50) in the series with MDA-MB-231 was 0.15 µM; in the series with ACHN, 0.17 µM; with HCT-15 it was 0.17 µM; in the series with NUGC-3, 0.15 µM; in the series on NCI-H23, 0.16 µM.
On to `C[C@@H](O)c1cccc2nc3c(C(=O)O[C@H](C)c4cccc5nc6c(C(=O)O)cccc6nc45)cccc3nc12`, for which the IC50 in the series on MDA-MB-231 was found to be 0.01 µM; in the series on PC-3, 0.01 µM; in the series with ACHN, 0.014 µM; in the series on HCT-15, 0.01 µM; in the series with NUGC-3 it was 0.0077 µM; in the series with BV-2 [1] it was 0.3 µM. The IC50 in the series with NCI-H23 came to 0.01 µM. In addition, in the series with BV-2 [2], the Activity result is given as “Toxic”.
For the compound `CC(=O)c1cccc2nc3c(C(=O)O[C@H](C)c4cccc5nc6c(C(=O)O)cccc6nc45)cccc3nc12`, the IC50 with MDA-MB-231 worked out at 0.052 µM; with PC-3, 0.047 µM; with ACHN it was 0.072 µM; in the series on HCT-15, 0.06 µM; in the series on NUGC-3 it was 0.035 µM; in the series with NCI-H23, 0.043 µM.
Take `C[C@@H](OC(=O)c1ccccc1N)c1cccc2nc3c(C(=O)O)cccc3nc12`: the 50% inhibitory concentration (IC50) with MDA-MB-231, with PC-3, in the series on ACHN, with HCT-15, with NUGC-3 and with NCI-H23 was greater than 10 µM throughout.
Consider `C[C@@H](c1cc(C(=O)O)c2nc3cccc([C@@H](C)O)c3nc2c1)c1cccc2nc3c(C(=O)O)cccc3nc12`, for which the IC50 in the series on MDA-MB-231, in the series on PC-3, in the series on ACHN, with HCT-15, with NUGC-3 and with NCI-H23 was greater than 10 µM in each case.
Take `C[C@H](c1cccc2nc3c(C(=O)O)cccc3nc12)c1ccc(C(=O)O)c2nc3cccc([C@@H](C)O)c3nc12`: the IC50 was greater than 10 µM in the series with MDA-MB-231; greater than 10 µM with PC-3; greater than 10 µM with ACHN; greater than 10 µM in the series with HCT-15; greater than 10 µM in the series on NUGC-3; 170 µM in the series on BV-2 [1]. For the same compound, the IC50 with NCI-H23 is greater than 10 µM.
For the compound `C[C@@H](c1cccc2nc3c(C(=O)O)cccc3nc12)c1ccc(C(=O)O)c2nc3cccc([C@@H](C)O)c3nc12`, the 50% inhibitory concentration (IC50) with MDA-MB-231 is greater than 10 µM; with PC-3 it was greater than 10 µM; in the series on ACHN, greater than 10 µM; in the series with HCT-15 it was greater than 10 µM; in the series with NUGC-3, greater than 10 µM; in the series with BV-2 [1], 90 µM. Besides, the IC50 in the series on NCI-H23 was greater than 10 µM.

The values are drawn from ChEMBL document CHEMBL5143633, “Isolation, Structure Determination, and Semisynthesis of Diphenazine Compounds from a Deep-Sea-Derived Strain of the Fungus Cystobasidium laryngis and Their Biological Activities” (J Nat Prod, 2022).
